In patent US9056858B2, “Indazole and pyrazolopyridine compounds as CCR1 receptor antagonists” (Boehringer Ingelheim International GmbH, priority 2009, dated 2015):

Molecular target: T1, CCR1 (Homo sapiens, UniProt P32246)
T1 construct: host or cells: Non-adherent cells
T1 sequence (P32246 1-355): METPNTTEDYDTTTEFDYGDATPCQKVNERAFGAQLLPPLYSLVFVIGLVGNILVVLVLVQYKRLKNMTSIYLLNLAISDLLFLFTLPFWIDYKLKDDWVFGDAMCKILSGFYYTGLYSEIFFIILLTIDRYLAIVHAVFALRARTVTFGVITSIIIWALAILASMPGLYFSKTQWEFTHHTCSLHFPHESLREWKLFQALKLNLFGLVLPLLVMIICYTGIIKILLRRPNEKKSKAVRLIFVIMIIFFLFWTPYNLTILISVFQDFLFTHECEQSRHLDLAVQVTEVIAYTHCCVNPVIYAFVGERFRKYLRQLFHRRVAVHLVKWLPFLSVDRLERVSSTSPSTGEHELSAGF
Experiment: functional cellular assay measuring calcium flux in CCR1 transfected cells (block of CCR1/MIP-1α interaction)
Type: cell-based
Conditions: cells stably expressing recombinant CCR1 and G-alpha-16, MIP-1alpha added at EC80
Description: Compounds are assessed for the ability to block the interaction of CCR1 and MIP-1α in a functional cellular assay measuring calcium flux in CCR1 transfected cells.
Non-adherent cells purchased from Chemicon Corporation (HTS005C), stably expressing recombinant CCR1 and G-alpha-16 are grown in RPMI 1640 medium (Mediatech 10-080-CM) supplemented with 10% FBS, 0.4 mg/mL Geneticin and penicillin/streptomycin. On the day of the assay, the cells are loaded with Calcium 4 dye (Molecular Devices R7448) with Probenecid (Invitrogen P346400) at 8E5 cells/mL for 1 hour at room temperature. After 1 hour, they are seeded in a 384-well tissue culture-treated plate at a density of 20,000 cells/well. Appropriately diluted test compound is added to the well to achieve a top concentration of 3,000 nM (diluted 4-fold with 10 doses total). The final concentration of DMSO is 1%. The buffer is HBSS (Invitrogen 14025) with 20 mM HEPES at pH 7.4. The cells incubate 30 minutes at 37 C and then 30 minutes at room temperature. The plates are transferred to the […] FDSS6000 where MIP-1alpha in 1% BSA is added at the EC80 final concentration. All plates must be read within 4 hours of the start of dye-loading. Wells +/− MIP-1alpha containing diluted DMSO instead of compound serve as the controls. Data are analyzed using Activity Base software.

| Structure (SMILES) | IC50 [nM] |
| --- | --- |
| COc1cccc(C2(NC(=O)c3cncc4c3cnn4-c3ccc(F)cc3)CC2)c1 [1-(4-Fluoro-phenyl)-1H-pyrazolo[3,4-c]pyridine-4-carboxylic acid [1-(3-methoxy-phenyl)-cyclopropyl]-amide] | 5 |
| O=C(NC1(c2cccc(C(F)(F)F)c2)CC1)c1cncc2c1cnn2-c1ccc(F)cc1 [1-(4-Fluoro-phenyl)-1H-pyrazolo[3,4-c]pyridine-4-carboxylic acid [1-(3-trifluoromethyl-phenyl)-cyclopropyl]-amide] | 0.4 |
| CC(C)(C)OC(=O)NCc1ccc(C2(NC(=O)c3cncc4c3cnn4-c3ccc(F)cc3)CC2)nc1 [[6-(1-{[1-(4-Fluoro-phenyl)-1H-pyrazolo[3,4-c]pyridine-4-carbonyl]-amino}-cyclopropyl)-pyridin-3-ylmethyl]-carbamic acid tert-butyl ester] | 81 |
| CS(=O)(=O)c1ccc(C2(NC(=O)c3cncc4c3cnn4-c3ccc(F)cc3)CC2)o1 [1-(4-Fluoro-phenyl)-1H-pyrazolo[3,4-c]pyridine-4-carboxylic acid [1-(5-methanesulfonyl-furan-2-yl)-cyclopropyl]-amide] | 4 |
| CC(C)(C)OC(=O)NCc1ccnc(C2(NC(=O)c3cncc4c3cnn4-c3ccc(F)cc3)CC2)c1 [[2-(1-{[1-(4-Fluoro-phenyl)-1H-pyrazolo[3,4-c]pyridine-4-carbonyl]-amino}-cyclopropyl)-pyridin-4-ylmethyl]-carbamic acid tert-butyl ester] | 285 |
| Cc1cccc(C2(NC(=O)c3cncc4c3cnn4-c3ccc(F)cc3)CC2)c1 [1-(4-Fluoro-phenyl)-1H-pyrazolo[3,4-c]pyridine-4-carboxylic acid (1-m-tolyl-cyclopropyl)-amide] | 26 |

Other lines, results leading:

| IC50 [nM] | Structure (SMILES) |
| --- | --- |
| 3 | O=C(NC1(c2ccnc(Br)c2)CCC1)c1cncc2c1cnn2-c1ccc(F)cc1 [1-(4-Fluoro-phenyl)-1H-pyrazolo[3,4-c]pyridine-4-carboxylic acid [1-(2-bromo-pyridin-4-yl)-cyclobutyl]-amide] |
| 17 | O=C(NC1(c2cc(Cl)ccn2)CC1)c1cncc2c1cnn2-c1ccc(F)cc1 [1-(4-Fluoro-phenyl)-1H-pyrazolo[3,4-c]pyridine-4-carboxylic acid [1-(4-chloro-pyridin-2-yl)-cyclopropyl]-amide] |
| 31 | COc1ccnc(C2(NC(=O)c3cncc4c3cnn4-c3ccc(F)cc3)CC2)c1 [1-(4-Fluoro-phenyl)-1H-pyrazolo[3,4-c]pyridine-4-carboxylic acid [1-(4-methoxy-pyridin-2-yl)-cyclopropyl]-amide] |
